Measurements as given in ChEMBL document CHEMBL5131391, “One-pot three-component synthesis of novel pyrazolo[3,4-b]pyridines as potent antileukemic agents” (Eur J Med Chem, 2022).
pIC50: −log10 of the molar value.

Each compound was assayed on M14 (assay: Antiproliferative activity against human M14 cells assessed as growth inhibition at 10 uM measured after 48 hrs by NCI protocol based SRB assay relative to control). Settings: read-out: GI.
Format: functional
Compound `N#Cc1c(-c2ccc(Cl)cc2)nc2c(c(-c3ccccc3)nn2-c2ccccc2)c1-c1ccc(O)cc1` has an inhibition of growth at 10 µM of 62%.

These compounds were tested on SK-MEL-5 (assay: Antiproliferative activity against human SK-MEL-5 cells assessed as growth inhibition at 10 uM measured after 48 hrs by NCI protocol based SRB assay relative to control). Settings: read-out: GI.
Format: functional
Work on `N#Cc1c(-c2ccc(Cl)cc2)nc2c(c(-c3ccccc3)nn2-c2ccccc2)c1-c1ccc(O)cc1` yielded an inhibition of growth at 10 µM of 44%.

Each compound was assayed on SK-MEL-28 (assay: Antiproliferative activity against human SK-MEL-28 cells assessed as growth inhibition at 10 uM measured after 48 hrs by NCI protocol based SRB assay relative to control). Settings: read-out: GI.
Format: functional
In the case of `N#Cc1c(-c2ccc(Cl)cc2)nc2c(c(-c3ccccc3)nn2-c2ccccc2)c1-c1ccc(O)cc1`, the inhibition of growth at 10 µM was 44%.

The compounds below were run on UACC-62 (assay: Antiproliferative activity against human UACC-62 cells assessed as growth inhibition at 10 uM measured after 48 hrs by NCI protocol based SRB assay relative to control). Settings: read-out: GI.
Format: functional
With `N#Cc1c(-c2ccc(Cl)cc2)nc2c(c(-c3ccccc3)nn2-c2ccccc2)c1-c1ccc(O)cc1` the inhibition of growth at 10 µM was 47%.

These compounds were tested on UACC-257 (assay: Antiproliferative activity against human UACC-257 cells assessed as growth inhibition at 10 uM measured after 48 hrs by NCI protocol based SRB assay relative to control). Settings: read-out: GI.
Format: functional
`N#Cc1c(-c2ccc(Cl)cc2)nc2c(c(-c3ccccc3)nn2-c2ccccc2)c1-c1ccc(O)cc1` showed an inhibition of growth at 10 µM of 15%.

These compounds were tested on OVCAR-8 (assay: Antiproliferative activity against human OVCAR-8 cells assessed as growth inhibition at 10 uM measured after 48 hrs by NCI protocol based SRB assay relative to control). Settings: read-out: GI.
Format: functional
`N#Cc1c(-c2ccc(Cl)cc2)nc2c(c(-c3ccccc3)nn2-c2ccccc2)c1-c1ccc(O)cc1` showed an inhibition of growth at 10 µM of 51%.

Each compound was assayed on NCI/ADR-RES (assay: Antiproliferative activity against human NCl/ADR-RES cells assessed as growth inhibition at 10 uM measured after 48 hrs by NCI protocol based SRB assay relative to control). Settings: read-out: GI.
Format: functional
`N#Cc1c(-c2ccc(Cl)cc2)nc2c(c(-c3ccccc3)nn2-c2ccccc2)c1-c1ccc(O)cc1` showed an inhibition of growth at 10 µM of 43%.

The compounds below were run on 786-0 (assay: Antiproliferative activity against human 786-0 cells assessed as growth inhibition at 10 uM measured after 48 hrs by NCI protocol based SRB assay relative to control). Settings: read-out: GI.
Format: functional
`N#Cc1c(-c2ccc(Cl)cc2)nc2c(c(-c3ccccc3)nn2-c2ccccc2)c1-c1ccc(O)cc1` was tested, and the inhibition of growth at 10 µM was 83%.

What follows are compounds tested on CAKI-1 (assay: Antiproliferative activity against human CAKI-1 cells assessed as growth inhibition at 10 uM measured after 48 hrs by NCI protocol based SRB assay relative to control). Settings: read-out: GI.
Format: functional
`N#Cc1c(-c2ccc(Cl)cc2)nc2c(c(-c3ccccc3)nn2-c2ccccc2)c1-c1ccc(O)cc1` was tested, and the inhibition of growth at 10 µM was 60%.

What follows are compounds tested on A498 (assay: Antiproliferative activity against human A498 cells assessed as growth inhibition at 10 uM measured after 48 hrs by NCI protocol based SRB assay relative to control). Settings: read-out: GI.
Format: functional
`N#Cc1c(-c2ccc(Cl)cc2)nc2c(c(-c3ccccc3)nn2-c2ccccc2)c1-c1ccc(O)cc1` was tested, and the inhibition of growth at 10 µM was 21%.

What follows are compounds tested on UO-31 (assay: Antiproliferative activity against human UO-31 cells assessed as growth inhibition at 10 uM measured after 48 hrs by NCI protocol based SRB assay relative to control). Settings: read-out: GI.
Format: functional
With `N#Cc1c(-c2ccc(Cl)cc2)nc2c(c(-c3ccccc3)nn2-c2ccccc2)c1-c1ccc(O)cc1` the inhibition of growth at 10 µM was 70%.

These compounds were tested on PC-3 (assay: Antiproliferative activity against human PC-3 cells assessed as growth inhibition at 10 uM measured after 48 hrs by NCI protocol based SRB assay relative to control). Settings: read-out: GI.
Format: functional
Work on `N#Cc1c(-c2ccc(Cl)cc2)nc2c(c(-c3ccccc3)nn2-c2ccccc2)c1-c1ccc(O)cc1` yielded an inhibition of growth at 10 µM of 89%.

What follows are compounds tested on DU-145 (assay: Antiproliferative activity against human DU-145 cells assessed as growth inhibition at 10 uM measured after 48 hrs by NCI protocol based SRB assay relative to control). Settings: read-out: GI.
Format: functional
With `N#Cc1c(-c2ccc(Cl)cc2)nc2c(c(-c3ccccc3)nn2-c2ccccc2)c1-c1ccc(O)cc1` the inhibition of growth at 10 µM was 50%.

These compounds were tested on MDA-MB-231 (assay: Antiproliferative activity against human MDA-MB-231 cells assessed as growth inhibition at 10 uM measured after 48 hrs by NCI protocol based SRB assay relative to control). Settings: read-out: GI.
Format: functional
For `N#Cc1c(-c2ccc(Cl)cc2)nc2c(c(-c3ccccc3)nn2-c2ccccc2)c1-c1ccc(O)cc1`, the inhibition of growth at 10 µM was 64%.

What follows are compounds tested on MCF7 (assay: Antiproliferative activity against human MCF7 cells assessed as growth inhibition at 10 uM measured after 48 hrs by NCI protocol based SRB assay relative to control). Settings: read-out: GI.
Format: functional
In the case of `N#Cc1c(-c2ccc(Cl)cc2)nc2c(c(-c3ccccc3)nn2-c2ccccc2)c1-c1ccc(O)cc1`, the inhibition of growth at 10 µM was 81%.

Each compound was assayed on T47D (assay: Antiproliferative activity against human T47D cells assessed as growth inhibition at 10 uM measured after 48 hrs by NCI protocol based SRB assay relative to control). Settings: read-out: GI.
Format: functional
`N#Cc1c(-c2ccc(Cl)cc2)nc2c(c(-c3ccccc3)nn2-c2ccccc2)c1-c1ccc(O)cc1` gave an inhibition of growth at 10 µM of 45%.

Each compound was assayed on Hs-578T (assay: Antiproliferative activity against human Hs-578T cells assessed as growth inhibition at 10 uM measured after 48 hrs by NCI protocol based SRB assay relative to control). Settings: read-out: GI.
Format: functional
Work on `N#Cc1c(-c2ccc(Cl)cc2)nc2c(c(-c3ccccc3)nn2-c2ccccc2)c1-c1ccc(O)cc1` yielded an inhibition of growth at 10 µM of 74%.

Each compound was assayed on MV4-11 (assay: Antiproliferative activity against human MV4-11 cells assessed as reduction in cell viability incubated for 72 hrs by resazurin dye based assay). Settings: MV4-11, 72 h.
Format: functional
In the case of `N#Cc1c(-c2ccc(Cl)cc2)nc2c(c(-c3ccccc3)nn2-c2ccccc2)c1-c1ccc(O)cc1`, the pIC50 was 4.60.
